Results on one sequence are retold here after article PMC12442081, “Combating Fuel Biocontamination: Tailored Antimicrobial Peptides and an Innovative Delivery Strategy” (ACS Applied Bio Materials, 2025).

Where no end group is shown, it is not given here.

The test system of data set [1] is Bacillus licheniformis (BL) ATCC 14580. Type of data set: cell-based. The following applies: ATCC 14580. The procedure, abridged: (§1)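 Peptides were serially diluted and incubated overnight at 37 °C with an equal volume of mid-log bacteria at 5 × 10^5 CFU/mL, previously grown in LB broth. Growth inhibition was read on a plate reader, and mean MIC from triplicates was reported.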

The test system of data set [2] is Dermacoccus nishinomiyaensis (DN) ATCC 29093. In kind it is cell-based. The procedure, abridged:
as §1

Data set [3] deals with Kocuria rosea (KR) ATCC 186. Type of data set: cell-based. The procedure, abridged: as §1
Data set [4] deals with Macrococcus caseolyticus (MC) ATCC 13548. Type of data set: cell-based. The procedure, abridged:
as §1

Data set [5] has as its system Micrococcus yunnanensis (MY) ATCC 12698. Type of data set: cell-based. The procedure, abridged: as §1
Data set [6] deals with Pseudomonas aeruginosa (PA) ATCC 39327. Type of data set: cell-based. The note with it: ATCC 39327. In short, it runs like this: as §1
Data set [7] relates to Roseomonas mucosa (RM) ATCC BAA-692. In kind it is cell-based. The procedure, abridged:
as §1

The subject of data set [8] is Sphingomonas paucimobilis (SP). Type of data set: cell-based. In short, it runs like this:
as §1

Data set [9] has as its system Sheep red blood cells (RBCs). Briefly: Hemolysis assay. In kind it is cell-based. Here is the method:
The RBCs were centrifuged at 1000g for 15 min at 4 °C to remove the buffy coat and washed 3 times with PBS. 100 μL of 4% (v/v) RBC was suspended in PBS and added into sterilized 96-well plates. 100 μL of peptide solution was added to the suspension of RBCs by serial dilution starting from 200 μM to […] and incubated overnight at 37 °C. Sample absorbance at 545 nm was measured to determine hemoglobin release after centrifuging the plate at 600 g for 10 min. The percentage of cell lysis was calculated using the following formula (eq ). , 1 %lysis=OD545(test)−OD545(blank)/OD545(totallysis)−OD545(blank)×100

Data set [10] is described as follows: HPLC retention time as a function of peptide hydrophobicity. Type of data set: physicochemical. The note with it: chromatographic, Polaris 5 C18-A reverse phase, 0.1% TFA water / 0.1% TFA acetonitrile gradient, 30 min, 300 μM peptide. In short, it runs like this: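 Reverse-phase C18 HPLC used water and acetonitrile, each with 0.1% (v/v) TFA, under a constant gradient run for 30 min after injection. Samples were 300 μM peptide in acetonitrile–water (1:4).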

The subject of data set [11] is Bacillus licheniformis (BL). The data set is described as follows: Effectiveness of peptides on spiked fuel samples (aqueous layer). In kind it is cell-based. The note with it: initial screening in spiked fuel. More on the design: key: (+) =1 (implying peptide activity in fuel environment); (X) = 0 (implying no activity in the desired range, indicated by microbial proliferation); Fuel x = -1(implying no activity in fuel environment). The procedure, abridged: (§2)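 Fuel filter-sterilized and mixed 1:1 (v/v) with BH medium; bacteria inoculated into the bottom aqueous phase, with engineered peptides dosed at their respective MICs into the aqueous layer. Incubated aerobically at 30 °C for 30 days; aqueous and fuel layers sampled at 7, 14, 21 and 30 days and plated on LBA for viability.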

Data set [12] has as its system Dermacoccus nishinomiyaensis (DN). The description is as above. In kind it is cell-based. More on the design: key: (+) =1 (implying peptide activity in fuel environment); (X) = 0 (implying no activity in the desired range, indicated by microbial proliferation); Fuel x = -1(implying no activity in fuel environment). The note with it: initial screening in spiked fuel. The procedure, abridged: as §2

Data set [13] has as its system Hormoconis resinae (HR). Described as above. In kind it is cell-based. The note with it: initial screening in spiked fuel. Details: key: (+) =1 (implying peptide activity in fuel environment); (X) = 0 (implying no activity in the desired range, indicated by microbial proliferation); Fuel x = -1(implying no activity in fuel environment). In short, it runs like this: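 Fuel:BH 1:1 v/v, cells seeded in bottom aqueous phase; peptide at MIC added to aqueous layer; aerobic, 30 °C, 30 d; plating of aqueous + fuel layers d7/14/21/30 for viable counts.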

The test system of data set [14] is Kocuria rosea (KR). The description is as above. Type of data set: cell-based. More on the design: key: (+) =1 (implying peptide activity in fuel environment); (X) = 0 (implying no activity in the desired range, indicated by microbial proliferation); Fuel x = -1(implying no activity in fuel environment). The following applies: initial screening in spiked fuel. The procedure, abridged:
as §2

For data set [15], the system named is Macrococcus caseolyticus (MC). The data set is described as above. In kind it is cell-based. The note with it: initial screening in spiked fuel. More on the design: key: (+) =1 (implying peptide activity in fuel environment); (X) = 0 (implying no activity in the desired range, indicated by microbial proliferation); Fuel x = -1(implying no activity in fuel environment). The procedure, abridged: as §2

Data set [16] deals with Micrococcus yunnanensis (MY). The description is as above. Type of data set: cell-based. Details: key: (+) =1 (implying peptide activity in fuel environment); (X) = 0 (implying no activity in the desired range, indicated by microbial proliferation); Fuel x = -1(implying no activity in fuel environment). The note with it: initial screening in spiked fuel. The procedure, abridged:
as §2

In data set [17] the test system is Pseudomonas aeruginosa (PA). Described as above. In kind it is cell-based. Details: key: (+) =1 (implying peptide activity in fuel environment); (X) = 0 (implying no activity in the desired range, indicated by microbial proliferation); Fuel x = -1(implying no activity in fuel environment). The following applies: initial screening in spiked fuel. In short, it runs like this: as §2

Data set [18] relates to Roseomonas mucosa (RM). Described as above. Type of data set: cell-based. More on the design: key: (+) =1 (implying peptide activity in fuel environment); (X) = 0 (implying no activity in the desired range, indicated by microbial proliferation); Fuel x = -1(implying no activity in fuel environment). The following applies: initial screening in spiked fuel. The procedure, abridged:
as §2

Data set [19] relates to Sphingomonas paucimobilis (SP). The description is as above. More on the design: key: (+) =1 (implying peptide activity in fuel environment); (X) = 0 (implying no activity in the desired range, indicated by microbial proliferation); Fuel x = -1(implying no activity in fuel environment). Type of data set: cell-based. The following applies: initial screening in spiked fuel. In short, it runs like this:
as §2

The subject of data set [20] is microbial clusters MY, KR, DN, MC, BL, RM, SP, PA, HR. Briefly: Broad-spectrum activity score (in-house scoring matrix). The following applies: sum over 9 microbial clusters: (+) = 1, (X) = 0, Fuel x = -1. In short, it runs like this: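 Each peptide is scored per microbial cluster from its MIC/efficacy with fuel co-incubation: +1 = active in the fuel environment, 0 = no activity in the desired range (microbial proliferation), −1 = no activity in the fuel environment. The score is built from these per-cluster points.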

Usually MIC stands for the lowest concentration found to suppress growth. As for ILPWKWPWWPFRR [P4], the MIC is 0.9 µM in [1]; 0.9 µM in data set [2]; 0.9 µM in data set [3]; 0.9 µM in data set [4]; 0.9 µM in data set [5]; 7.8 µM in [6]. Besides, the values for the MIC in data set [7] and in [8] were 3.9 µM and 0.9 µM, respectively. In addition, the “HL50, conc. to reach 50% cell lysis” value in data set [9] was found to be 10 µM. Also, the “R t, retention time of peptide on HPLC column as a function of peptide hydrophobicity” value in [10] is recorded as 12.891 min. The “activity considering MIC value/efficacy upon fuel co-incubation” value in [11] is “+”; in data set [12], “+”; in data set [13], “X”; in data set [14], “+”; in [15], “+”; in [16], “+”. Further, the results for the “activity considering MIC value/efficacy upon fuel co-incubation” value in data set [17], in [18] and in [19] were “X”, “+” and “+”, respectively. Also, the Score in data set [20] worked out at 7.
